Assay results as given in US8350027B2, “Dual-acting pyrazole antihypertensive agents” (Theravance, Inc., priority 2009, dated 2013).

Legend:
human AT1 receptor = biological target: T1, human AT1 receptor (Homo sapiens, UniProt P30556); assay: AT1 radioligand binding assay (displacement of [Eu]AngII); conditions: membranes of CHO-K1 cells expressing cloned human AT1 receptor; values given as lower bounds; read-out: AT1 pKi (converted)
T1 construct: expressed in transfected cells; host or cells: CHO-K1
T1 sequence (P30556 1-359): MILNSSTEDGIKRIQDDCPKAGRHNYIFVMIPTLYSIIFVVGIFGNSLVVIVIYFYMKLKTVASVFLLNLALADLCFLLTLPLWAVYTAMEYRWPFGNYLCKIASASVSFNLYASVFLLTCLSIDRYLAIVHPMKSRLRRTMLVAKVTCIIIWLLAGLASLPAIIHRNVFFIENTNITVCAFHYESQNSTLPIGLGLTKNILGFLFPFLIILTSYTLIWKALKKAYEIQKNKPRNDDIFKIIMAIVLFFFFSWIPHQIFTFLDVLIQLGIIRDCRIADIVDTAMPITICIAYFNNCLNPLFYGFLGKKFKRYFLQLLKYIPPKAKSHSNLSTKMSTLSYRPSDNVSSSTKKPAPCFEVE
How it was run: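 Membranes from CHO-K1 cells stably expressing cloned human AT1, 0.2 μg protein, in 50 mM Tris/HCl pH 7.5, 5 mM MgCl2, 0.025% BSA. Compounds displaced [Eu]AngII over 120 min in the dark at room temperature or 37° C; filter-bound TRF read. Nonspecific binding with 10 μM angiotensin II; IC50 converted to Ki via Cheng-Prusoff, reported as pKi.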

NEP enzyme = biological target: T2, NEP enzyme (Homo sapiens, UniProt P08473); assay: NEP enzyme inhibition assay (fluorogenic peptide substrate); type: biochemical; conditions: values given as lower bounds; * = prodrugs, may not exhibit NEP activity in an in vitro assay; read-out: NEP pIC50 (converted)
T2 construct: purchased R&D Systems, Minneapolis, Minn; 1182-ZN
How it was run: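 Recombinant human NEP was run with Mca-BK2 (10 μM) at room temperature in Tris buffer with 1 μM Zn. Compounds (10 μM–20 pM, 12 points) were pre-equilibrated 10 min, then reacted 20 min and acid-stopped. Fluorescence ex 320/em 405 nm, one-site competition fit gives pIC50. Thiol compounds may be pre-treated with 400 μM TCEP.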

T2 sequence (P08473 52-750 limits assumed): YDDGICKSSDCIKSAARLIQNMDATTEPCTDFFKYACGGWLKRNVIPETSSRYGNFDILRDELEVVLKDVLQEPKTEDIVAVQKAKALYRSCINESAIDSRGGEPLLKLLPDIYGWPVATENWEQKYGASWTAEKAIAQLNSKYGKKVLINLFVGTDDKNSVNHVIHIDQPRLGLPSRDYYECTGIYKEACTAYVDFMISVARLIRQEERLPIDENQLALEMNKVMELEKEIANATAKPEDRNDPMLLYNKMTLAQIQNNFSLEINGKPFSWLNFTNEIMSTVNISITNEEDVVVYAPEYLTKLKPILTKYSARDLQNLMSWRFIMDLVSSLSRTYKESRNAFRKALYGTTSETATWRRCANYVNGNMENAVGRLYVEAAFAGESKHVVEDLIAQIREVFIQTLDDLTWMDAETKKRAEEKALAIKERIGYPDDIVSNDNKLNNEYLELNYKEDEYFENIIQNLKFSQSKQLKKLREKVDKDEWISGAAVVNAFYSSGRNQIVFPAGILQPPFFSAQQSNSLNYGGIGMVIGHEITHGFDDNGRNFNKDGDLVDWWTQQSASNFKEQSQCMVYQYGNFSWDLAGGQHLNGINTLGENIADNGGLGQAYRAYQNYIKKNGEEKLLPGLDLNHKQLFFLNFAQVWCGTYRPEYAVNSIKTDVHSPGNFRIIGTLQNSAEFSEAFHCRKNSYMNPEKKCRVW

SMILES	Ki (human AT1 receptor)	IC50 (NEP enzyme)
CCCc1cc(C(=O)N[C@H](Cc2ccccc2)[C@@H](O)C(=O)O)nn1Cc1cnc(-c2ccccc2-c2nnn[nH]2)cn1 [Example 17-3, (2R,3R)-3-(1-((5-(2-(1H-tetrazol-5-yl)phenyl)pyrazin-2-yl)methyl)-5-propyl-1H-pyrazole-3-carboxamido)-2-hydroxy-4-phenylbutanoic acid]	≤ 10 nM	≤ 100 nM
CCCc1cc(C(=O)N[C@H](Cc2ccccc2)[C@@H](O)C(=O)O)nn1Cc1ccc(-c2ccccc2S(=O)(=O)NC(C)=O)cc1F [Example 6-14, (2R,3R)-3-(1-((2′-(N-acetylsulfamoyl)-3-fluorobiphenyl-4-yl)methyl)-5-propyl-1H-pyrazole-3-carboxamido)-2-hydroxy-4-phenylbutanoic acid]	≤ 10 nM	≤ 100 nM
CCCc1cc(C(=O)N[C@H](Cc2ccccc2)[C@@H](O)C(=O)O)nn1Cc1ccc(-c2ccccc2S(=O)(=O)NC(=O)c2ccccn2)cc1 [Example 7-9, (2R,3R)-2-Hydroxy-4-phenyl-3-[(5-propyl-1-{2′-[(pyridine-2-carbonyl)sulfamoyl]biphenyl-4-ylmethyl}-1H-pyrazole-3-carbonyl)amino]butyric acid]	≤ 10 nM	≤ 1000 nM
CCCc1cc(C(=O)N[C@@H](CC(=O)O)Cc2ccccc2F)nn1Cc1ccc(-c2ccccc2-c2nnn[nH]2)nc1 [Example 12, (R)-4-(2-Fluorophenyl)-3-[(5-propyl-1-{6-[2-(1H-tetrazol-5-yl)phenyl]pyridin-3-ylmethyl}-1H-pyrazole-3-carbonyl)amino]butyric acid]	≤ 10 nM	≤ 100 nM
CCCc1cc(C(=O)N[C@@H](CS)Cc2ccccc2)nn1Cc1ccc(-c2ccccc2C(=O)O)cc1 [Example 9-6, 4′-[3-((R)-1-Mercaptomethyl-2-phenylethylcarbamoyl)-5-propylpyrazol-1-ylmethyl]biphenyl-2-carboxylic acid]	≤ 100 nM	≤ 100 nM
CCCc1cc(C(=O)N[C@@H](CC(C)C)CN(O)C=O)nn1Cc1ccc(-c2ccccc2S(=O)(=O)NC(C)=O)cc1 [Example 6-23, 1-(2′-Acetylsulfamoyl-biphenyl-4-ylmethyl)-5-propyl-1H-pyrazole-3-carboxylic acid {(S)-1-[(formylhydroxyamino)methyl]-3-methylbutyl}amide]	≤ 10 nM	≤ 100 nM
CCCc1cc(C(=O)N[C@H](Cc2ccccc2)[C@H](O)C(=O)O)nn1Cc1ccc(-c2ccccc2-c2nnn[nH]2)nc1 [Example 14-9, (2S,3R)-2-Hydroxy-4-phenyl-3-[(5-propyl-1-{6-[2-(1H-tetrazol-5-yl)phenyl]pyridin-3-ylmethyl}-1H-pyrazole-3-carbonyl)amino]butyric acid]	≤ 10 nM	≤ 100 nM
CCCc1cc(C(=O)N[C@H](Cc2ccccc2)[C@@H](O)C(=O)O)nn1Cc1ccc(-c2ccccc2S(=O)(=O)NC(=O)COC)cc1 [Example 7-8, (2R,3R)-2-Hydroxy-3-({1-[2′-(2-methoxyacetylsulfamoyl)biphenyl-4-ylmethyl]-5-propyl-1H-pyrazole-3-carbonyl}amino)-4-phenylbutyric acid]	≤ 10 nM	≤ 1000 nM
CCc1cc(C(=O)N[C@H](Cc2ccccc2)[C@@H](O)C(=O)O)nn1Cc1ccc(-c2ccccc2S(=O)(=O)NC(C)=O)cc1F [Example 6-10, (2R,3R)-3-{[1-(2′-Acetylsulfamoyl-3-fluoro-biphenyl-4-ylmethyl)-5-ethyl-1H-pyrazole-3-carbonyl]amino}-2-hydroxy-4-phenylbutyric acid]	≤ 100 nM	≤ 100 nM
CCOc1cc(C(=O)N[C@@H](CC(=O)O)Cc2ccccc2)nn1Cc1ccc(-c2ccccc2-c2nnn[nH]2)cc1 [Example 3-32, (R)-3-({5-Ethoxy-1-[2′-(1H-tetrazol-5-yl)biphenyl-4-ylmethyl]-1H-pyrazole-3-carbonyl}amino)-4-phenylbutyric acid]	≤ 100 nM	≤ 10000 nM
CCCc1cc(C(=O)N[C@H](Cc2ccccc2)[C@@H](O)C(=O)O)nn1Cc1ccc(-c2ccccc2S(=O)(=O)NC(C)=O)nc1 [Example 13, (2R,3R)-3-({1-[6-(2-Acetylsulfamoylphenyl)pyridin-3-ylmethyl]-5-propyl-1H-pyrazole-3-carbonyl}amino)-2-hydroxy-4-phenylbutyric Acid]	≤ 100 nM	≤ 100 nM
CCCc1cc(C(=O)N[C@H](Cc2ccccc2Cl)[C@@H](O)C(=O)O)nn1Cc1ccc(-c2ccccc2-c2nnn[nH]2)cc1 [Example 3-22, (2R,3R)-3-(1-((2′-(1H-tetrazol-5-yl)biphenyl-4-yl)methyl)-5-propyl-1H-pyrazole-3-carboxamido)-4-(2-chlorophenyl)-2-hydroxybutanoic acid]	≤ 100 nM	≤ 100 nM
CCCc1cc(C(=O)N[C@@H](CC(=O)NO)Cc2ccccc2)nn1Cc1c(F)cc(-c2ccccc2S(=O)(=O)NC(C)=O)cc1F [Example 6-20, 1-(2′-Acetylsulfamoyl-3,5-difluorobiphenyl-4-ylmethyl)-5-propyl-1H-pyrazole-3-carboxylic acid ((R)-1-hydroxycarbamoylmethyl-2-phenylethyl)amide]	≤ 10 nM	≤ 100 nM

Continued, values first:

Ki (human AT1 receptor)	IC50 (NEP enzyme)	SMILES
≤ 100 nM	≤ 1000 nM	CCCc1cc(C(=O)N[C@@H](CC(=O)O)Cc2ccccc2Cl)nn1Cc1ccc(-c2ccccc2-c2nnn[nH]2)cc1F [Example 3-20, (R)-4-(2-chlorophenyl)-3-(1-((3-fluoro-2′-(1H-tetrazol-5-yl)biphenyl-4-yl)methyl)-5-propyl-1H-pyrazole-3-carboxamido)butanoic acid]
≤ 100 nM	≤ 100 nM	CCCc1cc(C(=O)N[C@@H](CS)Cc2ccccc2)nn1Cc1ccc(-c2ccccc2C(=O)O)cc1F [Example 8, 4′-[3-((R)-1-Benzyl-2-mercaptoethylcarbamoyl)-5-propylpyrazol-1-ylmethyl]-3′-fluorobiphenyl-2-carboxylic acid]
≤ 10 nM	≤ 100 nM	CCCc1cc(C(=O)N[C@@H](CC(=O)O)Cc2ccccc2Br)nn1Cc1ccc(-c2ccccc2-c2nnn[nH]2)nc1 [Example 14-4, (R)-4-(2-Bromophenyl)-3-[(5-propyl-1-{6-[2-(1H-tetrazol-5-yl)-phenyl]-pyridin-3-ylmethyl}-1H-pyrazole-3-carbonyl)amino]butyric acid]
≤ 10 nM	≤ 100 nM	CCCc1cc(C(=O)N[C@@H](CS)Cc2ccccc2)nn1Cc1ccc(-c2ccccc2-c2nnn[nH]2)cc1F [Example 3-2, 1-[3-Fluoro-2′-(1H-tetrazol-5-yl)biphenyl-4-ylmethyl]-5-propyl-1H-pyrazole-3-carboxylic acid ((R)-1-benzyl-2-mercaptoethyl)amide]
≤ 10 nM	≤ 1000 nM	CCCCc1cc(C(=O)N[C@H](Cc2ccccc2)[C@@H](O)C(=O)O)nn1Cc1ccc(-c2ccccc2S(=O)(=O)NC(C)=O)cc1F [Example 6-11, (2R,3R)-3-{[1-(2′-Acetylsulfamoyl-3-fluorobiphenyl-4-ylmethyl)-5-butyl-1H-pyrazole-3-carbonyl]amino}-2-hydroxy-4-phenylbutyric acid]
≤ 100 nM	≤ 100 nM	CCOc1cc(C(=O)N[C@@H](CS)CC(C)C)nn1Cc1ccc(-c2ccccc2-c2nnn[nH]2)cc1 [Example 3-5, 5-Ethoxy-1-[2′-(1H-tetrazol-5-yl)biphenyl-4-ylmethyl]-1H-pyrazole-3-carboxylic acid ((R)-1-mercaptomethyl-3-methylbutyl)amide]
